# According to patent publication US11858941B2, “Heterocyclic and heteroaryl compounds for treating Huntington's disease” (PTC THERAPEUTICS, INC., priority 2018, dated 2024):
# pIC50: −log10 of the molar value.
# Tested on: Endogenous Huntingtin Protein
# Test: Endogenous Huntingtin Protein Assay (Meso Scale Discovery ELISA-based electrochemiluminescence)
# Assay type: cell-based
# Conditions: MSD plates coated with MW1 (expanded polyglutamine) or MAB2166 capture antibody; lysates
# Procedure: Compounds of Formula (I) were tested using the Meso Scale Discovery (MSD) Assay provided in International Application No. PCT/US2016/066042, filed on Dec. 11, 2016 and claiming priority to United States Provisional Application U.S. 62/265,652 filed on Dec. 10, 2015, the entire contents of which are incorporated herein by reference.
# The Endogenous Huntingtin Protein assay used in Example 1 was developed using the ELISA-based MSD electrochemiluminescence assay platform.
# Endogenous Huntingtin Protein Assay
# Meso Scale Discovery (MSD) 96-well or 384-well plates were coated overnight at 4° C. with MW1 (expanded polyglutamine) or MAB2166 monoclonal antibody (for capture) at a concentration of 1 μg/mL in PBS (30 μL per well). Plates were then washed three times with 300 μL wash buffer (0.05% Tween-20 in PBS) and blocked (100 μL blocking buffer; 5% BSA in PBS) for 4-5 hours at room temperature with rotational shaking and then washed three times with wash buffer.
# Samples (25 μL) were transferred to the antibody-coated MSD plate and incubated overnight at 4° C. After removal of the lysates, the plate was washed three times with wash buffer, and 25 μL of #5656S (Cell signaling; rabbit monoclonal) secondary antibody (diluted to 0.25 μg/mL in 0.05% Tween-20 in blocking buffer) was added to each well and incubated with shaking for 1 Hour at room temperature. Following incubation with the secondary antibody, the wells were rinsed with wash buffer after which 25 μL of goat anti-rabbit SULFO TAG secondary detection antibody (required aspect of the MSD system) (diluted to 0.25 μg/mL in 0.05% Tween-20 in blocking buffer) was added to each well and incubated with shaking for 1 hour at room temperature. After rinsing three times with wash buffer, 150 μL of read buffer T with surfactant (MSD) were added to each empty well, and the plate was imaged on a SI 6000 imager (MSD) according to manufacturers' instructions provided for 96- or 384-well plates.
row,pIC50,Structure (SMILES)
1,6.00 to 6.30,"CC1(C)CC(n2nnc3cc(-c4cc(O)c(-c5cn[nH]c5)cc4F)nnc32)CC(C)(C)N1 [Cpd 33, 4-fluoro-2-(1H-pyrazol-4-yl)-5-[3-(2,2,6,6-tetramethylpiperidin-4-yl)-3H-[1,2,3]triazolo[4,5-c]pyridazin-6-yl]phenol]"
2,6.30 to 7.00,"CC1(C)CC(n2nnc3cc(-c4ccc(-n5cccn5)cc4O)nnc32)CC(C)(C)N1 [Cpd 34, 5-(1H-pyrazol-1-yl)-2-[3-(2,2,6,6-tetramethylpiperidin-4-yl)-3H-[1,2,3]triazolo[4,5-c]pyridazin-6-yl]phenol]"
3,≥ 7.00,"CC1(C)CC(n2nnc3cc(-c4cc(F)c(-c5cn[nH]c5)cc4O)nnc32)CC(C)(C)N1 [Cpd 35, 4-fluoro-5-(1H-pyrazol-4-yl)-2-[3-(2,2,6,6-tetramethylpiperidin-4-yl)-3H-[1,2,3]triazolo[4,5-c]pyridazin-6-yl]phenol]"
4,≥ 7.00,"Cn1ccc(-c2ccc(-c3cc4nnn(C5CC(C)(C)NC(C)(C)C5)c4nn3)c(O)c2)cc1=O [Cpd 37, 4-{3-hydroxy-4-[3-(2,2,6,6-tetramethylpiperidin-4-yl)-3H-[1,2,3]triazolo[4,5-c]pyridazin-6-yl]phenyl}-1-methylpyridin-2(1H)-one]"
5,≥ 7.00,"CC1(C)CC(n2nnc3cc(-c4ccc(-c5ccc(O)cc5)cc4O)nnc32)CC(C)(C)N1 [Cpd 38, 4-[3-(2,2,6,6-tetramethylpiperidin-4-yl)-3H-[1,2,3]triazolo[4,5-c]pyridazin-6-yl]biphenyl-3,4′-diol]"
6,≥ 7.00,"Cn1cc(-c2ccc(-c3cc4nnn(C5CC(C)(C)NC(C)(C)C5)c4nn3)c(O)c2)cn1 [Cpd 39, 5-(1-methyl-1H-pyrazol-4-yl)-2-[3-(2,2,6,6-tetramethylpiperidin-4-yl)-3H-[1,2,3]triazolo[4,5-c]pyridazin-6-yl]phenol]"
7,5.05 to 5.52,"COc1nc2cc(-c3ccc(-c4cn[nH]c4)cc3O)nnc2n1C1CC(C)(C)NC(C)(C)C1 [Cpd 40, 2-[6-methoxy-7-(2,2,6,6-tetramethylpiperidin-4-yl)-7H-imidazo[4,5-c]pyridazin-3-yl]-5-(1H-pyrazol-4-yl)phenol]"
8,6.30 to 7.00,"CNc1nc2cc(-c3ccc(-c4cn[nH]c4)cc3O)nnc2n1C1CC(C)(C)NC(C)(C)C1 [Cpd 42, 2-[6-(methylamino)-7-(2,2,6,6-tetramethylpiperidin-4-yl)-7H-imidazo[4,5-c]pyridazin-3-yl]-5-(1H-pyrazol-4-yl)phenol]"
9,6.00 to 6.30,"Oc1cc(-c2cn[nH]c2)ccc1-c1cc2[nH]cc(N3CCNCC3)c2nn1 [Cpd 43, 2-[7-(piperazin-1-yl)-5H-pyrrolo[3,2-c]pyridazin-3-yl]-5-(1H-pyrazol-4-yl)phenol]"
10,6.00 to 6.30,"CCn1cc(-c2ccc(-c3cc4nnn(C5CC(C)(C)NC(C)(C)C5)c4nn3)c(O)c2)cn1 [Cpd 46, 5-(1-ethyl-1H-pyrazol-4-yl)-2-[3-(2,2,6,6-tetramethylpiperidin-4-yl)-3H-[1,2,3]triazolo[4,5-c]pyridazin-6-yl]phenol]"
11,5.52 to 6.00,"CCCn1cc(-c2ccc(-c3cc4nnn(C5CC(C)(C)NC(C)(C)C5)c4nn3)c(O)c2)cn1 [Cpd 47, 5-(1-propyl-1H-pyrazol-4-yl)-2-[3-(2,2,6,6-tetramethylpiperidin-4-yl)-3H-[1,2,3]triazolo[4,5-c]pyridazin-6-yl]phenol]"
12,6.30 to 7.00,"CC1(C)CC(n2nnc3cc(-c4ccc(-c5cc[nH]n5)cc4O)nnc32)CC(C)(C)N1 [Cpd 48, 5-(1H-pyrazol-3-yl)-2-[3-(2,2,6,6-tetramethylpiperidin-4-yl)-3H-[1,2,3]triazolo[4,5-c]pyridazin-6-yl]phenol]"
13,5.52 to 6.00,"CCNc1nc2cc(-c3ccc(-c4cn[nH]c4)cc3O)nnc2n1C1CC(C)(C)NC(C)(C)C1 [Cpd 49, 2-[6-(ethylamino)-7-(2,2,6,6-tetramethylpiperidin-4-yl)-7H-imidazo[4,5-c]pyridazin-3-yl]-5-(1H-pyrazol-4-yl)phenol]"
14,6.30 to 7.00,"Cn1nccc1-c1ccc(-c2cc3nnn(C4CC(C)(C)NC(C)(C)C4)c3nn2)c(O)c1 [Cpd 50, 5-(1-methyl-1H-pyrazol-5-yl)-2-[3-(2,2,6,6-tetramethylpiperidin-4-yl)-3H-[1,2,3]triazolo[4,5-c]pyridazin-6-yl]phenol]"
15,6.30 to 7.00,"Cn1ccc(-c2ccc(-c3cc4nnn(C5CC(C)(C)NC(C)(C)C5)c4nn3)c(O)c2)n1 [Cpd 51, 5-(1-methyl-1H-pyrazol-3-yl)-2-[3-(2,2,6,6-tetramethylpiperidin-4-yl)-3H-[1,2,3]triazolo[4,5-c]pyridazin-6-yl]phenol]"
16,6.00 to 6.30,"CN1C(C)(C)CC(n2nnc3cc(-c4ccc(-c5cn[nH]c5)cc4O)nnc32)CC1(C)C [Cpd 52, 2-[3-(1,2,2,6,6-pentamethylpiperidin-4-yl)-3H-[1,2,3]triazolo[4,5-c]pyridazin-6-yl]-5-(1H-pyrazol-4-yl)phenol]"
17,≥ 7.00,"CC1(C)CC(n2nnc3cc(-c4cc(F)c(-c5ccc(O)cc5)cc4O)nnc32)CC(C)(C)N1 [Cpd 53, 6-fluoro-4-[3-(2,2,6,6-tetramethylpiperidin-4-yl)-3H-[1,2,3]triazolo[4,5-c]pyridazin-6-yl][1,1′-biphenyl]-3,4′-diol]"
18,≥ 7.00,"CC1(C)CC(n2nnc3cc(-c4ccc(-c5cn[nH]c5)c(F)c4O)nnc32)CC(C)(C)N1 [Cpd 54, 2-fluoro-3-(1H-pyrazol-4-yl)-6-[3-(2,2,6,6-tetramethylpiperidin-4-yl)-3H-[1,2,3]triazolo[4,5-c]pyridazin-6-yl]phenol]"
19,6.30 to 7.00,"Cn1ccc(-c2cc(O)c(-c3cc4nnn(C5CC(C)(C)NC(C)(C)C5)c4nn3)cc2F)cc1=O [Cpd 55, 4-{2-fluoro-5-hydroxy-4-[3-(2,2,6,6-tetramethylpiperidin-4-yl)-3H-[1,2,3]triazolo[4,5-c]pyridazin-6-yl]phenyl}-1-methylpyridin-2(1H)-one]"
20,6.30 to 7.00,"CC1(C)CC(n2nnc3cc(-c4ccc(-c5cn[nH]c5)cc4O)nnc32)CCN1 (stereo not drawn) [Cpd 56, 2-[3-(2,2-dimethylpiperidin-4-yl)-3H-[1,2,3]triazolo[4,5-c]pyridazin-6-yl]-5-(1H-pyrazol-4-yl)phenol]"
21,6.30 to 7.00,"CC1(C)CC(n2nnc3cc(-c4cc(O)c(-c5cn[nH]c5)cc4O)nnc32)CC(C)(C)N1 [Cpd 58, 2-(1H-pyrazol-4-yl)-5-[3-(2,2,6,6-tetramethylpiperidin-4-yl)-3H-[1,2,3]triazolo[4,5-c]pyridazin-6-yl]benzene-1,4-diol]"
22,≥ 7.00,"CC1(C)CC(n2nnc3cc(-c4c(O)cc(-c5cn[nH]c5)cc4F)nnc32)CC(C)(C)N1 [Cpd 59, 3-fluoro-5-(1H-pyrazol-4-yl)-2-[3-(2,2,6,6-tetramethylpiperidin-4-yl)-3H-[1,2,3]triazolo[4,5-c]pyridazin-6-yl]phenol]"

row,Structure (SMILES),pIC50
1,"Fc1c(-c2cn[nH]c2)ccc(-c2cc3c(nn2)N(C2CC4CCC(C2)N4)CC3)c1F (stereo not drawn) [Cpd 36, 7-[(3-exo)-8-azabicyclo[3.2.1]oct-3-yl]-3-[2,3-difluoro-4-(1H-pyrazol-4-yl)phenyl]-6,7-dihydro-5H-pyrrolo[2,3-c]pyridazine]",6.30 to 7.00
2,"C[C@]12CC[C@](C)(CC(n3nnc4cc(-c5ccc(-c6cn[nH]c6)cc5O)nnc43)C1)N2 (stereo partly drawn) [Cpd 57, 2-{3-[(1R,5S)-1,5-dimethyl-8-azabicyclo[3.2.1]octan-3-yl]-3H-[1,2,3]triazolo[4,5-c]pyridazin-6-yl}-5-(1H-pyrazol-4-yl)phenol]",≥ 7.00
